Data as given in patent US8937039B2, “Peptide-based peroxidase inhibitors and methods of using same” (The Medical College of Wisconsin, Inc., priority 2009, dated 2015).
“Also recorded” adds a separate entry of the source. Residues, ends and D or L forms follow the SMILES beside them.

Molecular target: T1, MPO (Homo sapiens, UniProt P05164)
T1 sequence (P05164 49-745): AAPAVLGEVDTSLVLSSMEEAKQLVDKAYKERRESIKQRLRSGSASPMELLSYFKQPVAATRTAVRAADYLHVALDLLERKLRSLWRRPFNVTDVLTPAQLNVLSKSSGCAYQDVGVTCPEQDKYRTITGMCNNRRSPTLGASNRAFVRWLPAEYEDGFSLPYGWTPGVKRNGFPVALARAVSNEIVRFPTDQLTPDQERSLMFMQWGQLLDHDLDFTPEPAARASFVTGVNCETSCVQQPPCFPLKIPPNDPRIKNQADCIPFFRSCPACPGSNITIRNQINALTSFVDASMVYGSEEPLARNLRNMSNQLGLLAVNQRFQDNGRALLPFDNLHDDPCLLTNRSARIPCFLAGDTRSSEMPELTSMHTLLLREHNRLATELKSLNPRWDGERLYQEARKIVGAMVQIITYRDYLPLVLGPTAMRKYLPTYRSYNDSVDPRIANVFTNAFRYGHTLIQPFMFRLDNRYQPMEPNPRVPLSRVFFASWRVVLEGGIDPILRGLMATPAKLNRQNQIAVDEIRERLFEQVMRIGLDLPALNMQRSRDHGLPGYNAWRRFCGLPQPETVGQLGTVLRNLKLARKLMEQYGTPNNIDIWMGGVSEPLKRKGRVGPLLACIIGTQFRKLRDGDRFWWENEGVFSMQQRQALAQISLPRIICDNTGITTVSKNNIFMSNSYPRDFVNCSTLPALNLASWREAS
Assay: MPO-mediated LDL oxidation (conjugated diene formation, 234 nm)
Format: biochemical
Set-up: purchased Lee Biosolutions (St. Louis, Mo.)
Conditions: for Conjugated diene formation in LDL (in words): MPO/H2O2 (300 μM)/nitrite, more than 2 hours
Method: MPO-mediated oxidation of LDL. […] LDL oxidation was monitored at 234 nm at room temperature on a HP UV/VIS spectrometer. Absorbance traces represent the average of duplicate experiments.
MPO-mediated LDL Oxidation. […] Rates of LDL oxidation were monitored at room temperature at 234 nm, the wavelength maximum for conjugated dienes.
MPO-mediated LDL Conjugated Diene Formation: Reaction mixtures contained LDL (0.15 mg/mL), NaNO2 (100 μM), H2O2 (100 μM), MPO (20 nM) and increasing concentrations of KYC or equimolar concentrations of various compounds in a phosphate buffer (100 mM, pH 7.4) containing DTPA (100 μM). Rates of LDL conjugated diene formation were determined by following changes in absorbance at 234 nm, the wavelength maximum for conjugated dienes, on a UV-Vis spectrophotometer (Agilent Model 8453) at room temperature.

Conjugated diene formation in LDL (in words) (20 μM KYC): totally suppresses
MPO/H2O2/nitrite-mediated LDL oxidation (in words) (25 μM, H2O2 100 μM, NaNO2 100 μM): completely suppressed
Conjugated diene formation in LDL (in words) (100 μM KYC): totally suppresses
Compound: CC(=O)N[C@@H](CCCCN)C(=O)N[C@@H](Cc1ccc(O)cc1)C(=O)N[C@@H](CS)C(N)=O [KYC, N-acetyl Lysyltyrosylcysteine Amide] (Ac-Lys-Tyr-Cys-NH2)
MPO/H2O2-mediated LDL oxidation in the absence of nitrite (in words) (25 μM, without NaNO2): inhibited; also recorded: did not increase LDL oxidation
